Source: patent US6677277B1, “Substituted sulphonyl amino(thio)carbonyl compounds and their use as herbicides” (Bayer Aktiengesellschaft, priority 1996, dated 2004)

Tests used:
Format in all cases: in vivo
Ipomoea = test: Post-emergence test/greenhouse; settings: for Ipomoea, % damage: rated after three weeks vs untreated control; for % damage, Ipomoea: after three weeks
Description: (§1) Post-emergence Test Solvent: 5 parts by weight of acetone Emulsifier: 1 part by weight of alkylaryl polyglycol ether To produce a suitable preparation of active compound, 1 part by weight of active compound is mixed with the stated amount of solvent, the stated amount of emulsifier is added and the concentrate is diluted with water to the desired concentration. Test plants which have a height of 5-15 cm are sprayed with the preparation of the active compound in such a way as to apply the particular amounts of active compound desired per unit area. The concentration of the spray liquor is chosen so that the particular amounts of active compound desired are applied in 1000 l of water/ha. After three weeks, the degree of damage to the plants is rated in % damage in comparison to the development of the untreated control. The figures denote: [table]

Solanum [1] = test: Post-emergence test/greenhouse; settings: post-emergence; for Solanum, % damage: rated after three weeks vs untreated control; for % damage, Solanum: after three weeks
Description: as §1

Sorghum [2] = test: Post-emergence test/greenhouse; settings: post-emergence; for Sorghum, % damage: rated after three weeks vs untreated control; for % damage, Sorghum: after three weeks
Description: as §1

Stellaria = test: Post-emergence test/greenhouse; settings: for Stellaria, % damage: rated after three weeks vs untreated control; for % damage, Stellaria: after three weeks
Description: as §1

Wheat = test: Post-emergence test/greenhouse; settings: rated after three weeks vs untreated control
Description: as §1

Xanthium = test: Post-emergence test/greenhouse; settings: post-emergence; for Xanthium, % damage: rated after three weeks vs untreated control
Description: as §1

weeds [3] = test: Post-emergence test; settings: cf. Tables B-1 to B-4
Description: as §1

Alopecurus [4] = test: Pre-emergence test/greenhouse; settings: after three weeks
Description: (§2) Pre-emergence Test Solvent: 5 parts by weight of acetone Emulsifier: 1 part by weight of alkylaryl polyglycol ether To produce a suitable preparation of active compound, 1 part by weight of active compound is mixed with the stated amount of solvent, the stated amount of emulsifier is added and the concentrate is diluted with water to the desired concentration. Seeds of the test plants are sown in normal soil. After about 24 hours, the soil is sprayed with the preparation of the active compound in such a way as to apply the particular amounts of active compound desired per unit area The concentration of the spray liquor is chosen so that the particular amounts of active compound desired are applied in 1000 l of water/ha. After three weeks, the degree of damage to the plants is rated in % damage in comparison to the development of the untreated control. The figures denote: [table]

Amaranthus = test: Pre-emergence test/greenhouse; settings: after three weeks
Description: as §2

Chenopodium = test: Pre-emergence test/greenhouse; settings: after three weeks
Description: as §2

Lolium [5] = test: Pre-emergence test/greenhouse; settings: after three weeks
Description: as §2

Maize = test: Pre-emergence test/greenhouse; settings: after three weeks
Description: as §2

Matricaria = test: Pre-emergence test/greenhouse; settings: after three weeks
Description: as §2

Solanum [6] = test: Pre-emergence test/greenhouse; settings: after three weeks
Description: as §2

Sorghum [7] = test: Pre-emergence test/greenhouse; settings: after three weeks
Description: as §2

weeds [8] = test: Pre-emergence test; settings: cf. Tables A-1 to A-5
Description: as §2

Alopecurus [9] = test: Post-emergence test/greenhouse; settings: 60 g ai./ha, after three weeks
Description: as §1

Lolium [10] = test: Post-emergence test/greenhouse; settings: 60 g ai./ha, after three weeks
Description: as §1

SMILES | Ipomoea, % damage (Ipomoea; 60 g ai./ha) | Solanum, % damage (Solanum [1]; 60 g ai./ha) [%] | Sorghum, % damage (Sorghum [2]; 60 g ai./ha) [%] | Stellaria, % damage (Stellaria; 60 g ai./ha) [%] | Wheat, % damage (Wheat; 60 g ai./ha) [%] | Xanthium, % damage (Xanthium; 60 g ai./ha) [%] | activity against weeds (weeds [3]) | % damage, Alopecurus (Alopecurus [4]; 125 g ai./ha) [%] | % damage, Amaranthus (Amaranthus; 125 g ai./ha) [%] | % damage, Chenopodium (Chenopodium; 125 g ai./ha) [%] | % damage, Lolium (Lolium [5]; 125 g ai./ha) [%] | % damage, Maize (Maize; 125 g ai./ha) [%] | % damage, Matricaria (Matricaria; 125 g ai./ha) [%] | % damage, Solanum (Solanum [6]; 125 g ai./ha) [%] | % damage, Sorghum (Sorghum [7]; 125 g ai./ha) [%] | activity against weeds (weeds [8]) | also measured
CCSc1cccc(OC(F)(F)F)c1S(=O)(=O)NC(=O)n1nc(CC)n(C)c1=O [Example 39] | 80% | 95 | 80 | 90 | 20 | 95 | very strong activity |  |  |  |  |  |  |  |  |  | 
CSc1cccc(OC(F)(F)F)c1S(=O)(=O)NC(=O)n1nc(SC)n(C)c1=O [Example 33] |  |  |  |  |  |  |  | 100 | 100 | 100 | 100 | 10 | 100 | 100 | 100 | very strong activity | 
CCc1nn(C(=O)NS(=O)(=O)c2c(SC)cccc2C(F)(F)F)c(=O)n1C [Example 63] |  |  |  |  |  |  |  |  |  |  |  |  |  |  |  | very strong activity | % damage, Alopecurus (Alopecurus [4]; 60 g ai./ha): 100%; % damage, Amaranthus (Amaranthus; 60 g ai./ha): 100%; % damage, Chenopodium (Chenopodium; 60 g ai./ha): 100%; % damage, Lolium (Lolium [5]; 60 g ai./ha): 70%; % damage, Maize (Maize; 60 g ai./ha): 0%; % damage, Solanum (Solanum [6]; 60 g ai./ha): 100%; % damage, Sorghum (Sorghum [7]; 60 g ai./ha): 100%
CCSc1cccc(C)c1S(=O)(=O)NC(=O)n1nc(OC)n(C)c1=O [Example 53] |  |  |  |  |  |  | very strong activity |  |  |  |  |  |  |  |  |  | Ipomoea, % damage (Ipomoea; 125 g ai./ha): 95%; Solanum, % damage (Solanum [1]; 125 g ai./ha): 59%; Sorghum, % damage (Sorghum [2]; 125 g ai./ha): 95%; Stellaria, % damage (Stellaria; 125 g ai./ha): 90%; Wheat, % damage (Wheat; 125 g ai./ha): 20%; Xanthium, % damage (Xanthium; 125 g ai./ha): 100%
CCOc1nn(C(=O)NS(=O)(=O)c2c(SC)cccc2SC)c(=O)n1C [Example 52] |  |  |  |  |  |  | very strong activity |  |  |  |  |  |  |  |  |  | % damage, Alopecurus (Alopecurus [9]): 90%; % damage, Ipomoea (Ipomoea; 60 g ai./ha): 90%; % damage, Lolium (Lolium [10]): 60%; % damage, Solanum (Solanum [1]; 60 g ai./ha): 95%; % damage, Sorghum (Sorghum [2]; 60 g ai./ha): 100%; % damage, Stellaria (Stellaria; 60 g ai./ha): 95%; % damage, Xanthium (Xanthium; 60 g ai./ha, after three weeks): 95%
CCSc1cccc(C(F)(F)F)c1S(=O)(=O)NC(=O)n1nc(OC)n(C)c1=O [Example 13] | 90% | 95 | 80 | 95 | 0 |  | very strong activity | 90 | 100 | 100 | 90 | 0 | 100 | 100 | 100 | very strong activity | 
CSc1cccc(C(F)(F)F)c1S(=O)(=O)NC(=O)n1nc(SC)n(C)c1=O [Example 62] |  |  |  |  |  |  |  |  |  |  |  |  |  |  |  | very strong activity | % damage, Alopecurus (Alopecurus [4]; 60 g ai./ha): 100%; % damage, Amaranthus (Amaranthus; 60 g ai./ha): 100%; % damage, Chenopodium (Chenopodium; 60 g ai./ha): 100%; % damage, Lolium (Lolium [5]; 60 g ai./ha): 100%; % damage, Maize (Maize; 60 g ai./ha): 10%; % damage, Solanum (Solanum [6]; 60 g ai./ha): 100%; % damage, Sorghum (Sorghum [7]; 60 g ai./ha): 90%
CCSc1cccc(SCC)c1S(=O)(=O)NC(=O)n1nc(CC)n(C)c1=O [Example 44] | 95% | 95 | 70 | 80 | 10 | 100 | very strong activity |  |  |  |  |  |  |  |  |  | 
COc1cccc(SCCF)c1S(=O)(=O)NC(=O)n1nc(OC)n(C)c1=O [Example 57] |  |  |  |  |  |  |  | 100 | 100 | 100 | 100 |  |  |  | 100 | very strong activity | 
COc1nn(C(=O)NS(=O)(=O)c2c(OC(F)(F)F)cccc2SC)c(=O)n1C [Example 32] |  |  |  |  |  |  |  |  |  |  |  |  |  |  |  | very strong activity | % damage, Alopecurus (Alopecurus [4]; 30 g ai./ha): 90%; % damage, Amaranthus (Amaranthus; 30 g ai./ha): 100%; % damage, Chenopodium (Chenopodium; 30 g ai./ha): 100%; % damage, Lolium (Lolium [5]; 30 g ai./ha): 100%; % damage, Maize (Maize; 30 g ai./ha): 5%; % damage, Matricaria (Matricaria; 30 g ai./ha): 90%; % damage, Solanum (Solanum [6]; 30 g ai./ha): 95%; % damage, Sorghum (Sorghum [7]; 30 g ai./ha): 90%
CCc1nn(C(=O)NS(=O)(=O)c2c(OC)cccc2SC)c(=O)n1C [Example 22] |  |  |  |  |  |  | very strong activity | 100 | 100 |  | 100 | 30 | 60 | 100 | 80 | very strong activity | % damage, Alopecurus (Alopecurus [9]): 90%; % damage, Ipomoea (Ipomoea; 60 g ai./ha): 80%; % damage, Lolium (Lolium [10]): 90%; % damage, Solanum (Solanum [1]; 60 g ai./ha): 80%; % damage, Sorghum (Sorghum [2]; 60 g ai./ha): 95%; % damage, Stellaria (Stellaria; 60 g ai./ha): 90%
CCOc1nn(C(=O)NS(=O)(=O)c2c(SCC)cccc2SCC)c(=O)n1C [Example 43] | 95% | 95 | 70 | 90 | 20 | 100 | very strong activity |  |  |  |  |  |  |  |  |  | 
CCSc1cccc(OC)c1S(=O)(=O)NC(=O)n1nc(CC)n(C)c1=O [Example 8] |  |  |  |  |  |  |  | 100 | 100 | 100 | 80 | 0 |  | 60 |  | very strong activity | 
CCOc1nn(C(=O)NS(=O)(=O)c2c(SCC)cccc2C(F)(F)F)c(=O)n1C [Example 11] | 90% | 70 |  | 90 | 0 | 90 | very strong activity | 100 | 100 | 100 | 90 | 10 | 100 | 100 | 100 | very strong activity | 
CCOc1nn(C(=O)NS(=O)(=O)c2c(C)cccc2SC)c(=O)n1C [Example 48] | 90% | 90 | 100 | 60 | 5 | 95 | very strong activity |  |  |  |  |  |  |  |  |  | 
CCSc1cccc(SCC)c1S(=O)(=O)NC(=O)n1nc(OC)n(C)c1=O [Example 46] | 9S | 95 | 70 | 95 |  | 100 | very strong activity |  |  |  |  |  |  |  |  |  | 
CCOc1nn(C(=O)NS(=O)(=O)c2c(Cl)cccc2SC)c(=O)n1C [Example 1, 5-ethoxy-4-methyl-2-(2-chloro-6-methylthio-phenylsulfonyl-aminocarbonyl)-2,4-dihydro-3H-1,2,4-triazol-3-one] |  |  |  |  |  |  |  | 95 | 90 | 60 | 70 | 0 | 70 | 100 | 90 | very strong activity | 
CCSc1cccc(C(F)(F)F)c1S(=O)(=O)NC(=O)n1nc(SC)n(C)c1=O [Example 14] |  |  |  |  |  |  |  | 100 | 70 | 100 |  | 0 | 100 | 100 | 90 | very strong activity | 
